Bridge positions count the residues as written; N and C are the ends. Ends that are not written are not given here. Peptide text beside a SMILES is read from it. I, II: the chains in the order shown. * marks the point of attachment. Chlorambucil = O=C(CCCc1ccc(N(CCCl)CCCl)cc1)*
Experiments:
MCF-7 cells [1] = details: cited from earlier work
Protocol: (§3) The effect of the dimeric sC18 on the survival of HEK-293, HT-29 and MCF-7 cells was determined by means of a resazurin-based cell viability assay.

[2] = test system: human adipose tissue-derived stem cells (hADSC); test: Fluorescence microscopic uptake study in primary cells; format: cell-based; details: 1 h
Protocol: For fluorescence microscopic uptake studies, cells were seeded in an 8-well ibidi plate and grown to 60–70% confluence. […] Ten minutes prior to the end of incubation, the nuclei were stained by addition of Hoechst33342 nuclear dye. Finally, the solution was removed, and the cells were treated with a 150 µM trypan blue solution for 0.5 min. After washing twice with PBS, images were taken by using a Zeiss Observer Z1 fluorescence microscope equipped with an ApoTome unit using a 63× oil immersion objective.

MCF-7 cells [3] = test: Flow cytometric cellular uptake of carboxyfluorescein-labeled peptides; format: cell-based, human; details: 1 h, flow cytometry; for cellular uptake at 1 µM: MCF-7, CF-labeled peptide 1 µM
Protocol: (§1) For peptide-uptake studies by flow cytometry, cells were seeded in a 48-well plate and grown to 60–70% confluence. After incubation at 37 °C for 1 h with 5(6)-carboxyfluorescein-labeled peptides in OptiMEM, the cells were treated with 150 µM trypan blue for 0.5 min to quench extracellular fluorescence and washed twice with PBS, trypsinized and resuspended in standard cell-culture medium. Analyses were performed on a Partec CyFlow ML flow cytometer. Cellular autofluorescence was subtracted. The experiments were carried out with n (number of experiments) = 2 in duplicate.

HT-29 cells [4] = test: as above; format: cell-based, human; details: 1 h, flow cytometry; for cellular uptake at 1 µM: HT-29, CF-labeled peptide 1 µM
Protocol: as §1

HEK-293 cells [5] = test: as above; format: cell-based, human; details: 1 h, flow cytometry; for cellular uptake at 1 µM: HEK-293, CF-labeled peptide 1 µM
Protocol: as §1

HEK-293 cells [6] = test: Fluorescence microscopic uptake study; format: cell-based, human; details: unfixed HEK-293, 1 µM CF-labeled peptide, 30 min, fluorescence microscopy
Protocol: For fluorescence microscopic uptake studies, cells were seeded in an 8-well ibidi plate and grown to 60–70% confluence. The cells were then incubated with CF-labeled peptides in OptiMEM for 30 min at 37 °C. Ten minutes prior to the end of incubation, the nuclei were stained by addition of Hoechst33342 nuclear dye. Finally, the solution was removed, and the cells were treated with a 150 µM trypan blue solution for 0.5 min. After washing twice with PBS, images were taken by using a Zeiss Observer Z1 fluorescence microscope equipped with an ApoTome unit using a 63× oil immersion objective.

HT-29 cells [7] = details: cited from earlier work
Protocol: as §3

HT-29 cells [8] = test: Resazurin-based cell viability assay; parameters: species or system human; details: n = 2 in triplicate; for IC50: resazurin-based cell viability, 24 h incubation, in the presence of serum, nonlinear regression, ± spread
Protocol: (§2) Untreated cells were set to 100%. […] Experiments were carried out with n = 2 in triplicate.

MCF-7 cells [9] = test: Resazurin-based cell viability assay; details: n = 2 in triplicate; for IC50: read-out: IC50 MCF-7, resazurin-based cell viability, 24 h incubation, in the presence of serum, nonlinear regression, ± spread
Protocol: Cytotoxicity was determined by means of a resazurin-based cell-viability assay. Cells were seeded in a 96-well plate, grown to subconfluency and incubated with the substances at different concentrations for 24 h in the presence of serum under standard growth conditions. For the positive control, cells were treated with 70% ethanol for 10 min. After washing, the cell viability was determined relative to untreated cells by using the In Vitro Toxicology Assay Kit from Sigma-Aldrich according to the manufacturer’s protocol. Measurement was performed fluorimetrically at 595 nm (λex = 550 nm) on a Tecan SpectraFluor Plus plate reader. Untreated cells were set to 100%. IC50 values were calculated by using nonlinear regression (sigmoidal dose–response) with GraphPad Prism. Experiments were carried out with n = 2 in triplicate.

HEK-293 cells [10] = test: LDH release (membrane integrity) assay; format: cell-based, human; details: HEK-293, 1 h incubation, elevated concentrations, CytoTox-One, n = 2 in triplicate
Protocol: Experiments were carried out with n = 2 in triplicate.

HEK-293 cells [11] = test: Resazurin-based cell viability assay; parameters: species or system human; details: HEK-293, 24 h, concentrations up to 100 µM, n = 2 in triplicate
Protocol: as §2

HT-29 cells [12] = test: LDH release (membrane integrity) assay; details: HT-29, 1 h incubation
Protocol: (§4) For the membrane leakage assay utilizing the Promega CytoTox-One kit, cells were seeded in a 96-well plate, grown to subconfluency, and incubated with the substances at different concentrations for 1 h in the presence of serum under standard growth conditions. Afterwards, the assay was conducted according to the manufacturer’s protocol including the provided cell lysis positive control. Measurement was performed fluorimetrically at 595 nm (λex = 550 nm) on a Tecan SpectraFluor Plus plate reader. The negative control served as blank value, and data were normalized to the positive control. Experiments were carried out with n = 2 in triplicate.

MCF-7 cells [13] = test: LDH release (membrane integrity) assay
Protocol: as §4

[14] = 25 µM CF-labeled peptide, fluorescence microscopy

## GLRKRLRKFRNKIKEK-NH2 [sC18, reference compound]
MCF-7 cells [1]
  cell viability (previous studies): did not cause any loss of cell viability
[2]; [14]
  uptake into primary cells: hardly any detectable uptake
MCF-7 cells [3]; 37 °C, OptiMEM
  cellular uptake at 1 µM: almost failed to internalize
HT-29 cells [4]; 37 °C, OptiMEM
  cellular uptake at 1 µM: almost failed to internalize
HEK-293 cells [5]; 37 °C, OptiMEM
  cellular uptake at 1 µM: almost failed to internalize
HEK-293 cells [6]
  intracellular distribution pattern: punctate uptake pattern
HT-29 cells [7]
  cell viability (previous studies): did not cause any loss of cell viability

## I: KLAKLAKKLAKLAKGFLGLRKRLRKFRNKIKEK-NH2 / II: GLRKRLRKFRNKIKEK (amide I:21-II:C) [compound 4]
HT-29 cells [8]
  IC50: 14.3 ± 1.4 µM
MCF-7 cells [9]
  IC50: 3.6 ± 1.5 µM

## CC[C@H](C)[C@H](NC(=O)[C@H](CCCCN)NC(=O)[C@H](CC(N)=O)NC(=O)[C@H](CCCNC(=N)N)NC(=O)[C@H](Cc1ccccc1)NC(=O)[C@H](CCCCN)NC(=O)[C@H](CCCNC(=N)N)NC(=O)[C@H](CC(C)C)NC(=O)[C@H](CCCNC(=N)N)NC(=O)[C@H](CCCCNC(=O)[C@H](CCCCN)NC(=O)[C@H](CCC(=O)O)NC(=O)[C@H](CCCCN)NC(=O)[C@@H](NC(=O)[C@H](CCCCN)NC(=O)[C@H](CC(N)=O)NC(=O)[C@H](CCCNC(=N)N)NC(=O)[C@H](Cc1ccccc1)NC(=O)[C@H](CCCCN)NC(=O)[C@H](CCCNC(=N)N)NC(=O)[C@H](CC(C)C)NC(=O)[C@H](CCCNC(=N)N)NC(=O)[C@H](CCCCN)NC(=O)[C@H](CCCNC(=N)N)NC(=O)[C@H](CC(C)C)NC(=O)CN)[C@@H](C)CC)NC(=O)[C@H](CCCNC(=N)N)NC(=O)[C@H](CC(C)C)NC(=O)CN)C(=O)N[C@@H](CCCCN)C(=O)N[C@@H](CCC(=O)O)C(=O)N[C@@H](CCCCN)C(N)=O [(sC18)2] (I: H-GLRKRLRKFRNKIKEK / II: H-GLRKRLRKFRNKIKEK-NH2; amide I:C-II:4)
HEK-293 cells [10]
  membrane leakage (LDH release): only show a little membrane leakage
HT-29 cells [8]; HT-29, 24 h, resazurin, different concentrations up to 100 µM (Figure 3)
  cell viability: steady decrease of cell viability
HEK-293 cells [11]
  cell viability: remained unharmed
[2]; [14]
  intracellular distribution in primary cells: evenly distributed throughout the cells
  uptake into primary cells: bright intracellular fluorescence
[2]; 25 µM, microscopy
  cytotoxicity judged by cell morphology: no cytotoxicity
HT-29 cells [12]; in the presence of serum, CytoTox-One, compared to MCF-7
  extracellular LDH levels: much smaller
MCF-7 cells [3]; 37 °C, OptiMEM
  cellular uptake at 1 µM: significant uptake
MCF-7 cells [3]; MCF-7, CF-labeled peptides, 37 °C, OptiMEM, trypan blue quench, n = 2 in duplicate
  increase of intracellular fluorescence versus sC18: ≥ 10 fold
MCF-7 cells [3]; MCF-7, CF-labeled, p ≤ 0.05
  uptake rate at 1 µM compared to sC18 at 10 µM: significantly higher
HT-29 cells [4]; CF-labeled peptide 10 µM, versus HEK-293 and MCF-7
  amount taken up by HT-29 cells compared to the other cell lines: less than half
HT-29 cells [4]; 37 °C, OptiMEM
  cellular uptake at 1 µM: significant uptake
HT-29 cells [4]; HT-29, CF-labeled peptides, 37 °C, OptiMEM, trypan blue quench, n = 2 in duplicate
  increase of intracellular fluorescence versus sC18: ≥ 10 fold
HEK-293 cells [5]; 37 °C, OptiMEM
  cellular uptake at 1 µM: significant uptake
HEK-293 cells [5]; HEK-293, CF-labeled peptides, 37 °C, OptiMEM, trypan blue quench, n = 2 in duplicate
  increase of intracellular fluorescence versus sC18: ≥ 10 fold
HEK-293 cells [5]; HEK-293, CF-labeled, p ≤ 0.05
  uptake rate at 1 µM compared to sC18 at 10 µM: significantly higher
HEK-293 cells [6]
  intracellular distribution pattern: punctate uptake pattern
MCF-7 cells [13]; MCF-7, 30 µM, 1 h incubation, in the presence of serum, CytoTox-One
  extracellular LDH (membrane destabilization): high levels of extracellular LDH
MCF-7 cells [9]; MCF-7, 24 h, resazurin, different concentrations up to 100 µM (Figure 3)
  cell viability: steady decrease of cell viability

## CC[C@H](C)[C@H](NC(=O)[C@H](CCCCN)NC(=O)[C@H](CC(N)=O)NC(=O)[C@H](CCCNC(=N)N)NC(=O)[C@H](Cc1ccccc1)NC(=O)[C@H](CCCCN)NC(=O)[C@H](CCCNC(=N)N)NC(=O)[C@H](CC(C)C)NC(=O)[C@H](CCCNC(=N)N)NC(=O)[C@H](CCCCNC(=O)[C@H](CCCCN)NC(=O)[C@H](CCC(=O)O)NC(=O)[C@H](CCCCN)NC(=O)[C@@H](NC(=O)[C@H](CCCCN)NC(=O)[C@H](CC(N)=O)NC(=O)[C@H](CCCNC(=N)N)NC(=O)[C@H](Cc1ccccc1)NC(=O)[C@H](CCCCN)NC(=O)[C@H](CCCNC(=N)N)NC(=O)[C@H](CC(C)C)NC(=O)[C@H](CCCNC(=N)N)NC(=O)[C@H](CCCCN)NC(=O)[C@H](CCCNC(=N)N)NC(=O)[C@H](CC(C)C)NC(=O)CNC(=O)[C@H](CC(C)C)NC(=O)[C@H](Cc1ccccc1)NC(=O)CNC(=O)CCCc1ccc(N(CCCl)CCCl)cc1)[C@@H](C)CC)NC(=O)[C@H](CCCNC(=N)N)NC(=O)[C@H](CC(C)C)NC(=O)CNC(=O)[C@H](CC(C)C)NC(=O)[C@H](Cc1ccccc1)NC(=O)CNC(=O)CCCc1ccc(N(CCCl)CCCl)cc1)C(=O)N[C@@H](CCCCN)C(=O)N[C@@H](CCC(=O)O)C(=O)N[C@@H](CCCCN)C(N)=O [compound 3] (I: Chlorambucil-GFLGLRKRLRKFRNKIKEK / II: Chlorambucil-GFLGLRKRLRKFRNKIKEK-NH2; amide I:C-II:7)
HT-29 cells [8]
  IC50: 26 ± 1.2 µM
HT-29 cells [12]; different concentrations (Figure 9)
  LDH release compared to the cymantrene conjugates: equal amount of LDH release
MCF-7 cells [13]; MCF-7, 1 h incubation, different concentrations (Figure 9)
  LDH release compared to the cymantrene conjugates: equal amount of LDH release
MCF-7 cells [9]
  IC50: 8.9 ± 0.3 µM

Reference: article PMC3511013, “Dimerization of a cell-penetrating peptide leads to enhanced cellular uptake and drug delivery” (Beilstein Journal of Organic Chemistry, 2012)
